# Several values for one entry are separate records, joined by “and”; a condition that tells them apart may be missing. Identical values can stand only once. Entries after “also recorded” stand apart in the source; their conditions may differ. Like-named read-outs stand apart in the source and are kept apart here.
# Key:
# prothrombin time [1] = experiment: Prothrombin time (PT) on citrated plasma of dosed dogs; type: in vivo, dog
# Method: Coagulation assays were performed on platelet-poor, citrated plasma samples by a reference laboratory (Comparative Coagulation Laboratory, Animal Health Diagnostic Center, Ithaca, NY). […] The assay is configured with a bovine activated Factor X reagent that is added in excess to the test plasma and a chromogenic substrate of Factor Xa (STA Liquid anti-Xa, Diagnostica Stago). Residual, uninhibited Factor Xa cleaves the chromogenic substrate such that the inverse of the color change in the reaction mixture is proportional to the drug concentration in the test plasma. […] Assay controls, consisting of human plasma spiked with apixaban (STA Apixaban Controls, Diagnostica Stago) were analyzed before each batch of test samples to confirm assay performance. The apixaban levels in calibrators and controls are defined by the manufacturer from an internal reference assayed by HPLC-MS. […] A mechanical endpoint method (STA Compact, Diagnostica Stago) and human coagulation reagents were used to measure prothrombin time (Thromboplastin LI, Helena Diagnostics, Beaumont, TX) and activated partial thromboplastin time (Dade Actin FS, Dade Behring, Newark, DE). […] Tissue-factor (1:50,000 final dilution) activated TEG was performed using standard equipment (TEG-5000, Haemonetics, Braintree, MA) as previously reported ([35]), with assays conducted per established guidelines ([36]), with a modification to eliminate the rest time to facilitate rapid sample processing. Thromboelastography assays were conducted by experienced operators using four TEG channels and tracings terminated after maximum amplitude was established. Four values were extracted from TEG tracings: reaction time (R-time), clot formation time (K-time), clot formation angle (alpha), and maximum amplitude (MA).
# Pairwise comparisons between continuous variables were conducted with Wilcoxon matched-pairs signed rank test, while comparisons of more than two groups were conducted using the Friedman test with Dunn's post-hoc adjustment. […]
# citrated whole blood = experiment: Tissue-factor activated thromboelastography (TF-TEG) on citrated whole blood of dosed dogs; type: in vivo, dog
# Method: Catheters were flushed with 0.9% saline, without heparin. […] Coagulation assays were performed on platelet-poor, citrated plasma samples by a reference laboratory (Comparative Coagulation Laboratory, Animal Health Diagnostic Center, Ithaca, NY). […] Residual, uninhibited Factor Xa cleaves the chromogenic substrate such that the inverse of the color change in the reaction mixture is proportional to the drug concentration in the test plasma. […] Assay controls, consisting of human plasma spiked with apixaban (STA Apixaban Controls, Diagnostica Stago) were analyzed before each batch of test samples to confirm assay performance. The apixaban levels in calibrators and controls are defined by the manufacturer from an internal reference assayed by HPLC-MS. […] A mechanical endpoint method (STA Compact, Diagnostica Stago) and human coagulation reagents were used to measure prothrombin time (Thromboplastin LI, Helena Diagnostics, Beaumont, TX) and activated partial thromboplastin time (Dade Actin FS, Dade Behring, Newark, DE). […] Tissue-factor (1:50,000 final dilution) activated TEG was performed using standard equipment (TEG-5000, Haemonetics, Braintree, MA) as previously reported ([35]), with assays conducted per established guidelines ([36]), with a modification to eliminate the rest time to facilitate rapid sample processing. Thromboelastography assays were conducted by experienced operators using four TEG channels and tracings terminated after maximum amplitude was established. Four values were extracted from TEG tracings: reaction time (R-time), clot formation time (K-time), clot formation angle (alpha), and maximum amplitude (MA). Pairwise comparisons between continuous variables were conducted with Wilcoxon matched-pairs signed rank test, while comparisons of more than two groups were conducted using the Friedman test with Dunn's post-hoc adjustment. Specifically, the Wilcoxon matched-pairs signed rank tests were used to compare the complete blood count and serum chemistry values between baseline and the +24 h time point. Comparisons of pharmacodynamic variables between baseline values and those at discrete sampling intervals were performed using the Friedman test with Dunn's post-hoc correction for multiple comparisons. […] Alpha was set at 0.05. Statistical analyses were performed using commercial software (Prism 9, GraphPad, La Jolla, CA).
# [2] = cats, cited from earlier work
# Factor Xa = details: cited from earlier work
# [3] = cited from earlier work
# [4] = male beagles, 5 mg/kg 14C labeled apixaban orally; cited from earlier work
# prothrombin time [5] = details: in vitro, dog plasma fortified with apixaban; cited from earlier work
# dog factor Xa = details: in vitro, isolated factor Xa, cited from earlier work
# [6] = test system: activated partial thromboplastin time; experiment: Activated partial thromboplastin time (aPTT) on citrated plasma of dosed dogs; type: in vivo, dog
# Method: Coagulation assays were performed on platelet-poor, citrated plasma samples by a reference laboratory (Comparative Coagulation Laboratory, Animal Health Diagnostic Center, Ithaca, NY). […] The assay is configured with a bovine activated Factor X reagent that is added in excess to the test plasma and a chromogenic substrate of Factor Xa (STA Liquid anti-Xa, Diagnostica Stago). Residual, uninhibited Factor Xa cleaves the chromogenic substrate such that the inverse of the color change in the reaction mixture is proportional to the drug concentration in the test plasma. […] Assay controls, consisting of human plasma spiked with apixaban (STA Apixaban Controls, Diagnostica Stago) were analyzed before each batch of test samples to confirm assay performance. The apixaban levels in calibrators and controls are defined by the manufacturer from an internal reference assayed by HPLC-MS. […] A mechanical endpoint method (STA Compact, Diagnostica Stago) and human coagulation reagents were used to measure prothrombin time (Thromboplastin LI, Helena Diagnostics, Beaumont, TX) and activated partial thromboplastin time (Dade Actin FS, Dade Behring, Newark, DE). […]
smiles,measurement,setting,value
COc1ccc(-n2nc(C(N)=O)c3c2C(=O)N(c2ccc(N4CCCCC4=O)cc2)CC3)cc1 [apixaban],PT versus baseline,"prothrombin time [1]; IV 0.18 mg/kg, at 5, 15, 30 and 60 min",significantly prolonged
same,concentration required to double the PT from baseline,"prothrombin time [1]; IV, estimate from the regression equation line of Figure 2B","2,485 ng/ml"
same,PT versus baseline,"prothrombin time [1]; PO 0.2 mg/kg, at 4, 6 and 8 h",significantly prolonged
same,TF-TEG K-time versus baseline,"citrated whole blood; IV 0.18 mg/kg, at 5 min",significantly different from baseline
same,TF-TEG R-time versus baseline,"citrated whole blood; IV 0.18 mg/kg, at 5 min",significantly different from baseline
same,TF-TEG alpha angle versus baseline,"citrated whole blood; IV 0.18 mg/kg, at 5 min",significantly different from baseline
same,TF-TEG R-time versus baseline,"citrated whole blood; IV 0.18 mg/kg, at 15 min ([…])",significantly prolonged
same,TF-TEG tracings,citrated whole blood; PO 0.2 mg/kg,not consistently affected
same,TF-TEG R-time versus baseline,"citrated whole blood; PO 0.2 mg/kg, at the 12-h timepoint",significantly different from baseline
same,time of peak aXa activity,[2]; following oral administration,4 h
same,half-life,[2]; intravenously administered apixaban,1.13 h
same,half-life,[2]; oral apixaban,3.3 h
same,bioavailability,[2]; oral,85.5%
same,aXa activity observed after 12 h,Factor Xa; humans receiving a single intravenous apixaban injection,150 ng/mL
same,aXa activity values typically observed in human treatment trials,Factor Xa; humans,approximately 150 ng/ml
same,protein-bound,[3],over 90%
same,time to maximal plasma concentrations,"[3]; dogs, 0.5 mg/kg IV or PO",2.8 h
same,oral bioavailability,"[3]; dogs, 0.5 mg/kg, liquid formulation with methylcellulose and polysorbate 80",80%
same,standard PT,"[3]; dogs, Thromboplastin C-Plus reagent",not the standard PT
same,factor Xa-dependent clotting time test (HEPTEST),[3]; dogs,prolonged
same,excretion of the unchanged compound via gastrointestinal routes,[4],59%
same,excretion of the unchanged compound via renal route,[4],7%
same,concentration required to double the prothrombin time,prothrombin time [5],"3,079 ng/ml and 6.7 μM"
same,inhibitor constant (Ki),dog factor Xa,0.78 ng/mL
same,Ki,dog factor Xa; read-out: inhibitor constant (Ki),1.7 nM
same,aPTT versus baseline,"[6]; IV 0.18 mg/kg, at 5 and 15 min post-injection",significantly prolonged
same,aPTT versus baseline,"[6]; PO 0.2 mg/kg, 0.2 mg/kg",not consistently affected; also recorded: did not have a significant effect
